In US20240287138A1, “CYCLIC PEPTIDES FOR INHIBITING TNF RECEPTOR 1 ACTIVITY” (Merck Sharp & Dohme LLC, priority 2023, published 2024):
Numbered stars: 1 amine (or outer) side, 2 acyl side, 3 side chain; on linkers, the order of the positions; unused ones are H or OH. Bridge positions count the residues as written; N and C are the ends. Square brackets hold non-standard residues; d marks the D form. Peptide text beside a SMILES is read from it. Trp(βS-Me,7-OMe) = COc1cccc2c([C@H](C)[C@H](N)C(=O)O)c[nH]c12; Ala(1-bicyclo(1.1.1)pentyl) = N[C@@H](CC12CC(C1)C2)C(=O)O; Phe(3-CH2NH2) = O=C([C@H](Cc1cccc(CN[*:3])c1)N[*:1])[*:2]; Trp(βS-Me) = C[C@@H](c1c[nH]c2ccccc12)[C@H](N)C(=O)O; Trp(4-Cl) = N[C@@H](Cc1c[nH]c2cccc(Cl)c12)C(=O)O; Trp(7-Cl) = N[C@@H](Cc1c[nH]c2c(Cl)cccc12)C(=O)O; Phe(4-CONH2) = NC(=O)c1ccc(C[C@H](N)C(=O)O)cc1; Phe(4-COOH) = N[C@@H](Cc1ccc(C(=O)O)cc1)C(=O)O; Trp(7-aza) = N[C@@H](Cc1c[nH]c2ncccc12)C(=O)O; Phe(4-CH2NH2) = NCc1ccc(C[C@H](N)C(=O)O)cc1; Trp(1-Me) = Cn1cc(C[C@H](N)C(=O)O)c2ccccc21; dPro(cis-4-NH2) = N[C@H]1CN[C@@H](C(=O)O)C1; N(CH2CH2COOH)Gly = O=C(O)CCNCC(=O)O; Pip(4-aza) = O=C(O)[C@@H]1CNCCN1; 4Pal = N[C@@H](Cc1ccncc1)C(=O)O; NMeE = CN[C@@H](CCC(=O)O)C(=O)O; Cit = NC(=O)NCCC[C@H](N)C(=O)O; NMeN = CN[C@@H](CC(N)=O)C(=O)O; Pip = O=C(O)[C@@H]1CCCCN1; αMeS = C[C@](N)(CO)C(=O)O; Nle = CCCC[C@H](N)C(=O)O; Sar = CNCC(=O)O

What was measured:
[1] = molecular target: T1, human TNFR1 extracellular domain (ECD) protein (Homo sapiens, UniProt P19438); experiment: SPR binding affinity to captured human TNFR1 ECD
T1 construct: HRV 3C protease cleavage site (C); 6His (C, cleaved yes); made in house; host or cells: Sf21 insect cells (baculovirus), secreted
T1 sequence (P19438 30-211): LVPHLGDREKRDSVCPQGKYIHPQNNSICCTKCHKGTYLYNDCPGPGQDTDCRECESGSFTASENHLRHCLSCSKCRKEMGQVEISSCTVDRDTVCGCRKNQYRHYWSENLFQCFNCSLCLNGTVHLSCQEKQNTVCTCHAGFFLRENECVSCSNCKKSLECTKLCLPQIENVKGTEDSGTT
In short: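 Biotinylated human TNFR1 or TNFR2 ECD (C-terminal Avi-tag, Sf21-expressed) captured on a regenerable streptavidin chip; peptide analytes flowed in 10 mM HEPES pH 7.4, 150 mM NaCl, 3 mM EDTA, 0.05% P20, 2% DMSO. kon and koff measured; affinity calculated from the rate constants.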

[2] = molecular target: T2, TNFα-induced NF-κB signal transduction pathway (TNFR1 signaling) in THP-1 cells (Homo sapiens, UniProt P19438); experiment: THP-1 Lucia NF-κB reporter cell assay, inhibition of TNFα-induced NF-κB signaling; type: cell-based; settings: THP-1 NF-κB Lucia reporter cells, 10 ng/mL TNFα, 16-18 h, secreted luciferase; read-out: THP-1 IC50
T2 sequence (P19438 30-455): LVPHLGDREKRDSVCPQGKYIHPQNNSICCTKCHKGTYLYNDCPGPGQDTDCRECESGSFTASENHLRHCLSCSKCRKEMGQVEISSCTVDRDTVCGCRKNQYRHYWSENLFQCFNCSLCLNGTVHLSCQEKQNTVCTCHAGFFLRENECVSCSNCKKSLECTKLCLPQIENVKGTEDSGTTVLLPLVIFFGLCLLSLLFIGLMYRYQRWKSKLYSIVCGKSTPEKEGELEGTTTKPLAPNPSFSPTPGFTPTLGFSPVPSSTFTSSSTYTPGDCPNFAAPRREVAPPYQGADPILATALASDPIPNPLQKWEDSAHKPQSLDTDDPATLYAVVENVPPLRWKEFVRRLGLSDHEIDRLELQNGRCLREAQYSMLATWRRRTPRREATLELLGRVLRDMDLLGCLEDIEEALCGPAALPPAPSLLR
In short: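 Read-out: secreted Lucia luciferase luminescence (QUANTI-Luc) from supernatant after 16-18 h, 37 °C, 10 ng/mL rhTNFα. Peptide pretreatment 1 h at 37 °C; 20,000 cells/well, selection antibiotics omitted. IC50 via 4-parameter logistic model against min/max controls.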

Structure (SMILES)	Kd [1] [nM]	IC50 [2] [nM]
C[C@@H](c1c[nH]c2ccccc12)[C@@H]1NC(=O)CN(C)C(=O)[C@H](Cc2c[nH]cn2)NC(=O)[C@H](Cc2ccc(C(=O)O)cc2)NC(=O)[C@](C)(CO)NC(=O)[C@H](Cc2c[nH]c3c(Cl)cccc23)NC(=O)[C@H](Cc2ccc(C(=O)O)cc2)NC(=O)[C@H](CC(N)=O)NC(=O)[C@H]2CCCN2C(=O)[C@H]([C@@H](C)c2c[nH]c3ccccc23)NC(=O)[C@H](CO)NC(=O)[C@H](Cc2ccc(CN)cc2)NC(=O)[C@H](CCCNC(N)=O)NC(=O)CSC[C@@H](C(N)=O)NC1=O [SEQ ID NO. 215] ({CH2CO}-[Cit][Phe(4-CH2NH2)]S[Trp(βS-Me)][dP]N[Phe(4-COOH)][Trp(7-Cl)][αMeS][Phe(4-COOH)]H[Sar][Trp(βS-Me)]C-NH2; thioether N-14)	1.8	9.7
CCCC[C@@H]1NC(=O)CSC[C@@H](C(N)=O)NC(=O)[C@H]([C@@H](C)c2c[nH]c3c(OC)cccc23)NC(=O)CN(C)C(=O)[C@H](Cc2ccc(O)cc2)NC(=O)[C@H](Cc2ccc(C(=O)O)cc2)NC(=O)[C@](C)(CO)NC(=O)[C@H](Cc2c[nH]c3c(Cl)cccc23)NC(=O)[C@H](Cc2ccc(OC)cc2)NC(=O)[C@H](CC(N)=O)NC(=O)[C@H](CCC(=O)O)N(C)C(=O)[C@H](Cc2c[nH]c3ccccc23)NC(=O)[C@@H]2CNCCN2C(=O)[C@H](Cc2ccncc2)NC1=O [SEQ ID NO. 218] ({CH2CO}-[Nle][4Pal][Pip(4-aza)]W[NMeE]NY(Me)[Trp(7-Cl)][αMeS][Phe(4-COOH)]Y[Sar][Trp(βS-Me,7-OMe)]C-NH2; thioether N-14)	0.5	3.4
CCCC[C@@H]1NC(=O)CSC[C@@H](C(N)=O)NC(=O)[C@H]([C@@H](C)c2c[nH]c3c(OC)cccc23)NC(=O)CN(C)C(=O)[C@H](Cc2ccc(O)cc2)NC(=O)[C@H](Cc2ccc(C(N)=O)cc2)NC(=O)[C@](C)(CO)NC(=O)[C@H](Cc2c[nH]c3c(Cl)cccc23)NC(=O)[C@H](Cc2ccncc2)NC(=O)[C@H](CC(N)=O)NC(=O)[C@H]2C[C@@H](N)CN2C(=O)[C@H](Cc2c[nH]c3ncccc23)NC(=O)[C@@H]2CNCCN2C(=O)[C@H](Cc2ccncc2)NC1=O [SEQ ID NO. 219] ({CH2CO}-[Nle][4Pal][Pip(4-aza)][Trp(7-aza)][dPro(cis-4-NH2)]N[4Pal][Trp(7-Cl)][αMeS][Phe(4-CONH2)]Y[Sar][Trp(βS-Me,7-OMe)]C-NH2; thioether N-14)	0.1	1.6
CCCC[C@@H]1NC(=O)CSC[C@@H](C(N)=O)NC(=O)[C@H]([C@@H](C)c2c[nH]c3c(OC)cccc23)NC(=O)CN(C)C(=O)[C@H](Cc2ccc(O)cc2)NC(=O)[C@H](Cc2ccc(C(=O)O)cc2)NC(=O)[C@](C)(CO)NC(=O)[C@H](Cc2c[nH]c3c(Cl)cccc23)NC(=O)[C@H](Cc2ccncc2)NC(=O)[C@H](CC(N)=O)NC(=O)CN(CCC(=O)O)C(=O)[C@H](Cc2c[nH]c3ncccc23)NC(=O)[C@@H]2CCCCN2C(=O)[C@H](Cc2ccncc2)NC1=O [SEQ ID NO. 220] ({CH2CO}-[Nle][4Pal][Pip][Trp(7-aza)][N(CH2CH2COOH)Gly]N[4Pal][Trp(7-Cl)][αMeS][Phe(4-COOH)]Y[Sar][Trp(βS-Me,7-OMe)]C-NH2; thioether N-14)	0.25	2.9
CN1CC(=O)N[C@@H](Cc2c[nH]c3cccc(Cl)c23)C(=O)N[C@H](C(N)=O)CSCC(=O)N[C@@H](CC23CC(C2)C3)C(=O)N[C@@H](Cc2cccc(CN)c2)C(=O)N[C@@H](CO)C(=O)N[C@@H](Cc2c[nH]c3c(Cl)cccc23)C(=O)N2CCC[C@@H]2C(=O)N(C)[C@@H](CC(N)=O)C(=O)N[C@@H](Cc2ccc(C(=O)O)cc2)C(=O)N[C@@H](Cc2c[nH]c3c(Cl)cccc23)C(=O)N[C@@](C)(CO)C(=O)N[C@@H](Cc2ccc(C(=O)O)cc2)C(=O)N[C@@H](Cc2cccc(CN)c2)C1=O [SEQ ID NO. 222] ({CH2CO}-[Ala(1-bicyclo(1.1.1)pentyl)][Phe(3-CH2NH2)]S[Trp(7-Cl)][dP][NMeN][Phe(4-COOH)][Trp(7-Cl)][αMeS][Phe(4-COOH)][Phe(3-CH2NH2)][Sar][Trp(4-Cl)]C-NH2; thioether N-14)	0.18	5.7
CCCC[C@@H]1NC(=O)CSC[C@@H](C(N)=O)NC(=O)[C@H](Cc2cn(C)c3ccccc23)NC(=O)CN(C)C(=O)[C@H](Cc2ccc(O)cc2)NC(=O)[C@H](Cc2ccc(C(=O)O)cc2)NC(=O)[C@](C)(CO)NC(=O)[C@H](Cc2c[nH]c3c(Cl)cccc23)NC(=O)[C@H](Cc2ccncc2)NC(=O)[C@H](CC(N)=O)NC(=O)[C@H](CCC(=O)O)N(C)C(=O)[C@H](Cc2c[nH]c3ncccc23)NC(=O)[C@H](CO)NC(=O)[C@H](Cc2ccncc2)NC1=O [SEQ ID NO. 223] ({CH2CO}-[Nle][4Pal]S[Trp(7-aza)][NMeE]N[4Pal][Trp(7-Cl)][αMeS][Phe(4-COOH)]Y[Sar][Trp(1-Me)]C-NH2; thioether N-14)	0.3	2.9
